Laboratory results taken from ChEMBL document CHEMBL4368940, “Development of a novel NURR1/NOT agonist from hit to lead and candidate for the potential treatment of Parkinson's disease” (Bioorg Med Chem Lett, 2019).

Assays:
[1] = target: Nuclear receptor subfamily 4 group A member 2 (Homo sapiens, UniProt P43354); test: Agonist activity at full-length Gal4-fused NOT (unknown origin) expressed in CHO cells by luciferase reporter gene assay; type: cell-based
[2] = Clearance in human hepatocytes assessed per million cells; type: ADME, cell-based, Hepatocyte
[3] = Drug level in human hepatocytes treated with (3-(2-(4-chlorophenyl)imidazo[1,2-a]pyridin-6-yl)phenyl)methanol; type: ADME, cell-based, Hepatocyte
[4] = target: Nuclear receptor subfamily 4 group A member 2 (Mus musculus) (UniProt Q06219); test: (§1) Agonist activity at Nurr1 in mouse N2A cells harboring NBRE by luciferase reporter gene assay; type: cell-based
[5] = target: Nuclear receptor subfamily 4 group A member 2 (Mus musculus, UniProt Q06219); test: as §1; type: cell-based
[6] = target: Nuclear receptor subfamily 4 group A member 2 (Rattus norvegicus) (UniProt Q07917); test: Agonist activity at Nurr1 in rat mesencephalic primary neurons assessed as increase in tyrosine hydroxylase expression at 3 uM
[7] = Solubility of the compound by HPLC analysis; type: physicochemical
[8] = Stability in human plasma; type: ADME, cell-free
[9] = Stability in mouse plasma; type: ADME, cell-free
[10] = Lipophilicity, log D of the compound; type: physicochemical; settings: octanol/water
[11] = Dissociation constant, pKa of the compound; type: physicochemical
[12] = Apparent permeability in human Caco2 cells; type: ADME, cell-based; settings: caco-2
[13] = Drug metabolism in mouse liver microsomes; type: ADME, Microsome; settings: read-out: Drug metabolism
[14] = Drug metabolism in human liver microsomes; type: ADME, Microsome; settings: read-out: Drug metabolism
Cytochrome P450 3A4 = Cytochrome P450 3A4 (Homo sapiens, UniProt P08684); test: Inhibition of CYP3A4 (unknown origin); type: ADME
Cytochrome P450 2D6 = Cytochrome P450 2D6 (Homo sapiens, UniProt P10635); test: Inhibition of CYP2D6 (unknown origin); type: ADME
Cytochrome P450 2C9 = Cytochrome P450 2C9 (Homo sapiens, UniProt P11712); test: Inhibition of CYP2C9 (unknown origin); type: ADME
CYP450 = CYP450 (Homo sapiens, UniProt P04798+P05177+P05181+P08684+P10632+P10635+P11509+P11712+P13584+P20813+P20815+P20853+P24462+P24903+P33260+P33261+P51589+P78329+P98187+Q02928+Q08477+Q16678+Q16696+Q5TCH4+Q6VVX0+Q7Z449+Q8TAV3+Q96SQ9+Q9HB55); test: Induction of CYP450 (unknown origin); type: ADME, protein assay
[15] = target: Voltage-gated inwardly rectifying potassium channel KCNH2 (Homo sapiens, UniProt Q12809); test: Activation of human ERG
[16] = Genotoxicity in Salmonella typhimurium by Ames test; type: toxicity; settings: salmonella enterica subsp. enterica serovar typhimurium
[17] = Drug metabolism in mouse liver microsomes assessed as amide hydrolysis by measuring 6-(pyridin-2-yl)imidazo[1,2-a]pyridine-2-carboxylic acid formation; type: ADME, Microsome
[18] = Drug metabolism in mouse liver microsomes assessed as amide hydrolysis by measuring aniline formation; type: ADME, Microsome
[19] = Drug level in mouse liver microsomes treated with N-phenyl-6-(pyridin-2-yl)imidazo[1,2-a]pyridine-2-carboxamide assessed as metabolite formation; type: ADME, Microsome
hERG = hERG (Homo sapiens, UniProt Q12809); test: Inhibition of human ERG at 10 uM
Sequence of hERG (Q12809 whole entry): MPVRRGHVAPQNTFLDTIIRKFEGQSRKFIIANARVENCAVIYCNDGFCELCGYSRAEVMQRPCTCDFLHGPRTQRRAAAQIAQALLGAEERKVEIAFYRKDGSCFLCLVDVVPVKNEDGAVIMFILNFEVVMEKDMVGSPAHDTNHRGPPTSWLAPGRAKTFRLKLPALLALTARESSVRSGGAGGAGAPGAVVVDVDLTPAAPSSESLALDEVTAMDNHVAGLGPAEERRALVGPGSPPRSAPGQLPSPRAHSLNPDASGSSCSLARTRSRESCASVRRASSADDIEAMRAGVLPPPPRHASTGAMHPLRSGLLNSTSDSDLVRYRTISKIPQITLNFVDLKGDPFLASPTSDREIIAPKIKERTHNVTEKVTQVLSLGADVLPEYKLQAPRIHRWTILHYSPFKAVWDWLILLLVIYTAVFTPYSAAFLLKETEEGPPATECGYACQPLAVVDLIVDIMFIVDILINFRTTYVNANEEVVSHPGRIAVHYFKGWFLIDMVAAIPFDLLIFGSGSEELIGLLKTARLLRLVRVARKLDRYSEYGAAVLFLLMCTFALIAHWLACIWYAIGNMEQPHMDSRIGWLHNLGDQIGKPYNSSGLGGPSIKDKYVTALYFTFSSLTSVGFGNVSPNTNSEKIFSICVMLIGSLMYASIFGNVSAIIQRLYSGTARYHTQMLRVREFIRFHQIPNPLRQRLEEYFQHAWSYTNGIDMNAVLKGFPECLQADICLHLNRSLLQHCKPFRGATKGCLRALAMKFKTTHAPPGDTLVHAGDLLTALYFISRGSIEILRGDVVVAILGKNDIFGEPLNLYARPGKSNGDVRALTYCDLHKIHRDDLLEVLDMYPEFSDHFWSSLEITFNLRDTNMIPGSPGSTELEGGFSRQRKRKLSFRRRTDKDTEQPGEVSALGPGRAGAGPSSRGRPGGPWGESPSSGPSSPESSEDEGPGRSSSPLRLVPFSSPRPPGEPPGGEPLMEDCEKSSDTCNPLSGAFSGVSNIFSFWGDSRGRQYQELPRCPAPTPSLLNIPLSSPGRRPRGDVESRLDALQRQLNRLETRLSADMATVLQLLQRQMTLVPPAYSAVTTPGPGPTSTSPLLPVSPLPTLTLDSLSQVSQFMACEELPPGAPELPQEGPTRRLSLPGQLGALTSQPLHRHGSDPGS

Sequence of Nuclear receptor subfamily 4 group A member 2 (Mus musculus) (Q06219 whole entry): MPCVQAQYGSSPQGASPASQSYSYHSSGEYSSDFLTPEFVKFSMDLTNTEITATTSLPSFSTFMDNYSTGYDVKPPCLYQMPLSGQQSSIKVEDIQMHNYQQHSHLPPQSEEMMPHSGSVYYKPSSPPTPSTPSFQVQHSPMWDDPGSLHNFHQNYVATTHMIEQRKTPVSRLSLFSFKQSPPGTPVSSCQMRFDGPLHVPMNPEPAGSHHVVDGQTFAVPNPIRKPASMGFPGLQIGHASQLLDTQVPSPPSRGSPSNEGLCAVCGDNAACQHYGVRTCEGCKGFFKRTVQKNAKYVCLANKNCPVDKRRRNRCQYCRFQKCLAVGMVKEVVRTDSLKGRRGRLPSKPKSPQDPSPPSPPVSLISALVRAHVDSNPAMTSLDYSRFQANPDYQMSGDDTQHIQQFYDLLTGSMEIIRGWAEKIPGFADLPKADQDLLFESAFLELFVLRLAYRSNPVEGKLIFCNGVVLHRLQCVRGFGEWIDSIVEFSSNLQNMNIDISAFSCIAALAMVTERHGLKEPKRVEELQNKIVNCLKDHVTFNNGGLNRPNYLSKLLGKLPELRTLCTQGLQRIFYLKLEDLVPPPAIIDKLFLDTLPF
Sequence of Nuclear receptor subfamily 4 group A member 2 (Mus musculus, UniProt Q06219) (Q06219 whole entry): as above
Sequence of Nuclear receptor subfamily 4 group A member 2 (Homo sapiens, UniProt P43354) (P43354 whole entry, the tested form may be a part): as the sequence (Q06219 whole entry) above, with S131T, S134G, D354E counted along it
Sequence of Cytochrome P450 3A4 (P08684 whole entry): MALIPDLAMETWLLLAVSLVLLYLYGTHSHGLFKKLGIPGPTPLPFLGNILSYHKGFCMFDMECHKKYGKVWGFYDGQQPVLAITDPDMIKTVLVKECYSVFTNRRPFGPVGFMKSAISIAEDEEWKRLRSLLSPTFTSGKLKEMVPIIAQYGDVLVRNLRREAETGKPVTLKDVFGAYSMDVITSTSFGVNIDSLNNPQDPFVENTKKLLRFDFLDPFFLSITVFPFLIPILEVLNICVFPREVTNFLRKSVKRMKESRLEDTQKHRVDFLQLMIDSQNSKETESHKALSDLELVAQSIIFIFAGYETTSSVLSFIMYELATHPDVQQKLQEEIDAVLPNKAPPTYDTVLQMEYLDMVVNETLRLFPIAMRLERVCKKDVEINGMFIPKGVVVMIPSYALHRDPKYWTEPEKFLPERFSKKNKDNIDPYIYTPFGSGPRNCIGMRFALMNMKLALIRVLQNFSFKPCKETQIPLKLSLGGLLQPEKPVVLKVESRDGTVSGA
Sequence of Nuclear receptor subfamily 4 group A member 2 (Rattus norvegicus) (Q07917 whole entry): as the sequence (Q06219 whole entry) above, with S134G, P182R counted along it
Sequence of Cytochrome P450 2D6 (P10635 whole entry): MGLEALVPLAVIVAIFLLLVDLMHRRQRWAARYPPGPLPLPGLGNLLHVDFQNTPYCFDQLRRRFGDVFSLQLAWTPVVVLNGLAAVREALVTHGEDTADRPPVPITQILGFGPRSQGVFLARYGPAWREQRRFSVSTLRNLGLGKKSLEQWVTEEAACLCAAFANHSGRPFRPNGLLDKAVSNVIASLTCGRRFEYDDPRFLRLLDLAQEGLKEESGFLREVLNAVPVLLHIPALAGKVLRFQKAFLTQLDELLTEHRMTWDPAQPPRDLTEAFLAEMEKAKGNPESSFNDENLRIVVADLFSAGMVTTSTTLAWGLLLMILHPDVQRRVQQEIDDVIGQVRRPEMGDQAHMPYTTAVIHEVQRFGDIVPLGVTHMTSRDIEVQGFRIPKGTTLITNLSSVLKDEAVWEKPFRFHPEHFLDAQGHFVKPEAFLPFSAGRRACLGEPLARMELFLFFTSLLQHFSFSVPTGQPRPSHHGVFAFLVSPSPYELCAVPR
Sequence of Cytochrome P450 2C9 (P11712 whole entry): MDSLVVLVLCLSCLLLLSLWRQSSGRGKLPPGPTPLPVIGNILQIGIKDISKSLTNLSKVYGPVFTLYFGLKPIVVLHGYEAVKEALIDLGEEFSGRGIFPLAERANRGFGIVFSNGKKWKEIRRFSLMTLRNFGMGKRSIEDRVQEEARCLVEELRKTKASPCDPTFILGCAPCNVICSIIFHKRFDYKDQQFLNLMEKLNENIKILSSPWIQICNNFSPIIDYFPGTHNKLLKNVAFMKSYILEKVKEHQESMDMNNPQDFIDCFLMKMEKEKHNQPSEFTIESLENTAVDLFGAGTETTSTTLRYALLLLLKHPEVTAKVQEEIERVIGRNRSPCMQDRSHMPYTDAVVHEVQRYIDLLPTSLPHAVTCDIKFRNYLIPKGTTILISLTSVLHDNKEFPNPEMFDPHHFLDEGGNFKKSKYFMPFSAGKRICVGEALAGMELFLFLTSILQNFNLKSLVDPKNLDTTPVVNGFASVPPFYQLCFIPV
Sequence of Voltage-gated inwardly rectifying potassium channel KCNH2 (Q12809 whole entry): as the sequence (Q12809 whole entry) above

For `Cc1cccc(-c2ccc3nc(-c4ccc(Cl)cc4)cn3c2)c1`, the EC50 ([1]; read-out: EC50) was > 3000 nM.

`CC(O)c1cccc(-c2ccc3nc(-c4ccc(Cl)cc4)cn3c2)c1` (single isomer, unassigned; (+)) showed an EC50 ([1]; read-out: EC50) of 75 nM and a CLH [2] of 0.45 mL/h.

For `O=C(O)c1cccc(-c2ccc3nc(-c4ccc(Cl)cc4)cn3c2)c1`, the Drug metabolism [3] was “Metabolite_Detected”.

Work on `O=C(Nc1ccccc1)c1cn2cc(-c3ccccn3)ccc2n1` yielded an Emax [4] of 204%, an EC50 [5] of 1 nM and an Emax [1] of 203%. For the same compound, the EC50 ([1]; read-out: EC50) was 140 nM, the Activity [6] was 174 to 216% and the solubility [7] was < 1 µM. The Stability [8] was “Stable”, the Stability [9] was “Unstable” and the logD [10] was 3.65. The pKa [11] was 3.6, the permeability [12] was “Permeable” and the metabolised [13] was 21%. The metabolised [14] was 20%, the CLH [2] was 0.128 mL/h and the IC50 (Cytochrome P450 3A4) was > 10000 nM. The IC50 (Cytochrome P450 2D6) was > 10000 nM, the IC50 (Cytochrome P450 2C9) was 8600 nM and the Emax (CYP450) was < 20%. The EC50 [15] was > 10000 nM, the Activity [16] was “Non-Toxic” and the Drug metabolism [17] was “Metabolite_Detected”. For the same compound, the Drug metabolism [18] was “Metabolite_Detected”.

With `Cc1c(CO)cccc1-c1ccc2nc(-c3ccc(Cl)cc3)cn2c1` the EC50 ([1]; read-out: EC50) was > 1000 nM.

For `O=C(Nc1nccs1)c1cn2cc(-c3ccccn3)ccc2n1`, the Emax [4] was 72% and the EC50 ([1]; read-out: EC50) was > 1000 nM.

For `OC(c1cccc(-c2ccc3nc(-c4ccc(Cl)cc4)cn3c2)c1)C1CCCC1` (stereo not drawn), the EC50 ([1]; read-out: EC50) was > 3000 nM.

In the case of `OC(c1ccccc1)c1cccc(-c2ccc3nc(-c4ccc(Cl)cc4)cn3c2)c1` (stereo not drawn), the EC50 ([1]; read-out: EC50) is reported as > 3000 nM.

With `N#Cc1cccc(-c2ccc3nc(-c4ccc(Cl)cc4)cn3c2)c1` the EC50 ([1]; read-out: EC50) was > 3000 nM.

For `O=C(Nc1cc(F)cc(F)c1)c1cn2cc(-c3ccccn3)ccc2n1`, the Emax [4] was 85%, the EC50 [5] was 2.5 nM and the EC50 ([1]; read-out: EC50) was > 1000 nM.

In the case of `CCC(C)C(O)c1cccc(-c2ccc3nc(-c4ccc(Cl)cc4)cn3c2)c1` (stereo not drawn), the EC50 ([1]; read-out: EC50) is reported as > 3000 nM.

With `O=C(O)c1cn2cc(-c3ccccn3)ccc2n1` the Drug metabolism [19] was “Metabolite_Detected”.

Work on `OCc1c(F)ccc(-c2ccc3nc(-c4ccc(Cl)cc4)cn3c2)c1F` yielded an EC50 ([1]; read-out: EC50) of 38 nM, a CLH [2] of 0.1368 mL/h and an inhibition at 10 µM (hERG) of 24%.

Work on `CC(O)c1cccc(-c2ccc3nc(-c4ccc(Cl)cc4)cn3c2)c1` (single isomer, unassigned; (-)) yielded an EC50 ([1]; read-out: EC50) of 219 nM.

Compound `CC(O)c1cccc(-c2ccc3nc(-c4ccc(Cl)cc4)cn3c2)c1` (racemic) has an EC50 ([1]; read-out: EC50) of 99 nM.

Compound `OCc1cccc(-c2ccc3nc(-c4ccc(Cl)cc4)cn3c2)c1F` has an EC50 ([1]; read-out: EC50) of 14 nM and a CLH [2] of 0.188 mL/h.

Work on `O=C(Nc1cccc(F)n1)c1cn2cc(-c3ccccn3)ccc2n1` yielded an Emax [4] of 86%, an EC50 [5] of 0.6 nM and an Emax [1] of 138%. It also gave an EC50 ([1]; read-out: EC50) of 25 nM.

In the case of `O=C(Nc1ccccc1F)c1cn2cc(-c3ccccn3)ccc2n1`, the Emax [4] is reported as 104%, the EC50 [5] is reported as 1 nM and the EC50 ([1]; read-out: EC50) is reported as > 1000 nM.

In the case of `CCN(CC)C(=O)c1cccc(-c2ccc3nc(-c4ccc(Cl)cc4)cn3c2)c1`, the EC50 ([1]; read-out: EC50) is reported as > 3000 nM.

With `CNCc1cccc(-c2ccc3nc(-c4ccc(Cl)cc4)cn3c2)c1` the EC50 ([1]; read-out: EC50) was > 3000 nM.

Compound `CNC(=O)c1cccc(-c2ccc3nc(-c4ccc(Cl)cc4)cn3c2)c1` has an Emax [1] of 226%.

In the case of `CCCCC(O)c1cccc(-c2ccc3nc(-c4ccc(Cl)cc4)cn3c2)c1` (stereo not drawn), the EC50 ([1]; read-out: EC50) is reported as > 3000 nM.

With `O=C(Nc1cc[nH]n1)c1cn2cc(-c3ccccn3)ccc2n1` the Emax [4] was 61% and the EC50 ([1]; read-out: EC50) was > 1000 nM.

For `Cc1ccc(-c2ccc3nc(-c4ccc(Cl)cc4)cn3c2)cc1CO`, the EC50 ([1]; read-out: EC50) was > 1000 nM.

For `OCc1cccc(-c2ccc3nc(-c4ccc(Cl)cc4)nn3n2)c1`, the EC50 ([1]; cho) was “Not Active”.

For `O=C(Nc1ccsc1)c1cn2cc(-c3ccccn3)ccc2n1`, the Emax [4] was 85%, the EC50 [5] was 1 nM and the EC50 ([1]; read-out: EC50) was > 1000 nM.

With `Clc1ccc(-c2cn3cc(-c4cccc(CN5CCOCC5)c4)ccc3n2)cc1` the EC50 ([1]; read-out: EC50) was > 3000 nM.
